Numbers after ± are expanded uncertainties.

The series can be described thus: molar enthalpy of vaporization or sublimation. The note with it: 298.15 K; Crystal; drop microcalorimetry.
As for `O=[N+]([O-])c1ccc(Cl)cc1Cl` [1,3-dichloro-4-nitrobenzene], the molar enthalpy came to 21 ± 0.813 kcal/mol.
Take `O=[N+]([O-])c1cc(Cl)ccc1Cl` [1,4-dichloro-2-nitrobenzene]: the molar enthalpy stood at 20.9 ± 1.2 kcal/mol.
As for `O=[N+]([O-])c1ccc(Cl)c(Cl)c1` [3,4-dichloro-1-nitrobenzene], the figure is 20.5 ± 1.2 kcal/mol; as for `O=[N+]([O-])c1cc(Cl)cc(Cl)c1` [1,3-dichloro-5-nitrobenzene], 19.9 ± 0.717 kcal/mol.
